What was measured:
[1] = target: T1, full-length p75^NTR in COS cells (Rattus norvegicus, UniProt P07174); experiment: Live cell homo-FRET anisotropy, wild-type p75NTR; format: cell-based; set-up: key to average anisotropy change, wt: fold change vs mean of 6 pre-treatment time points (baseline ≈ 100); details: for average anisotropy change, wt: 10 μM
T1 construct: COS cells expressing full length, GFP-tagged rat p75^NTR; expressed in transfected cells; host or cells: COS-7
T1 sequence (P07174 30-425): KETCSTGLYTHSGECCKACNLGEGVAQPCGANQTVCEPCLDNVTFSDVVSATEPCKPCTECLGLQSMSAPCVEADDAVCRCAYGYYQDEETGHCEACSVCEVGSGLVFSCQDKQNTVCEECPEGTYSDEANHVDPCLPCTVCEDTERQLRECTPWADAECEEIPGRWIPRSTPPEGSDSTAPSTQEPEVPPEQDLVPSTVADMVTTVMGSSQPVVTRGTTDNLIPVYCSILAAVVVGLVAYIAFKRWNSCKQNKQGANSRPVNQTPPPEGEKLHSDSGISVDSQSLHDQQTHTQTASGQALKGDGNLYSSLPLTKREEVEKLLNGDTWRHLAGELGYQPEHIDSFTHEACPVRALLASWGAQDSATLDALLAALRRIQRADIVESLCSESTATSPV
Source text: Previous real-time homo-FRET anisotropy studies by ours as well as other laboratories have shown that the intracellular death domains of p75^NTR are associated with each other (high FRET, low anisotropy state) under basal conditions (Vilar et al, [2009]; Sykes et al, [2012]), but neurotrophin binding induces transient separation of p75^NTR death domains (low FRET, high anisotropy state) manifested as oscillations in real-time anisotropy measurements (Lin et al, [2015]; Tanaka et al, [2016]; Goh et al, [2018]). COS cells expressing full length, GFP-tagged rat p75^NTR were treated with vehicle or Div17E5 and changes in anisotropy levels were recorded over time.
Anisotropy imaging in COS-7 cells that were transfected with a rat p75^NTR-EGFP* fusion construct was done as previously described (Goh, Lin et al, [2018]). EGFP* carries a […] mutation rendering monomeric EGFP. Changes in anisotropy were expressed as fold change at each time point (every 30 s) in comparison to the mean of 6 time points obtained prior to addition of treatment. Images were acquired using Nikon Ti-E based live cell epi-fluorescence microscope and MetaMorph software and analyzed using MatLab from Mathworks.

[2] = test system: human 70W cells; experiment: Lung invasion after intravenous injection of 70W cells; details: 70W cells lose p75ntr expression in vivo
Procedure: A875 NT cells that both wound areas decreased from 1 to ~0.75 in 24 hours. But in […]
Do the in vitro assays recapitulate melanoma invasiveness? If not, is it possible the ideal compounds were missed from the screening in melanoma cells (Figure 6)? […] This assay simply scores the relative orientation/conformation of the interacting receptor TMDs in isolation form the rest of the receptor. The wound healing assay is a rather simplistic assay of cell motility. The in vitro assay that better recapitulates what may happen in vivo is the Boyden chamber migration/invasion assay.
2. In Figure 7A, co-IP experiment requires input and IgG control to show positivity and specificity. In Figure 7B, quantification using the ratio of Triton-insoluble fascin to total fascin will be much more solid than only showing the western blot.
The input control was added in 7A and quantification in 7B (also in 7A).
"NGF treatment strongly stimulated the association of fascin with p75NTR".
The labels in the Western blot shown in this panel were incorrect. They have now been […]
4. Validation of results in another human cell line
During the past year, multiple tests were done by intravenous injection of human 70W cells, […]
followed by monitoring cells in the lungs in the presence and absence of drug treatment. […]
in vivo environment. […]

## Oc1ccc(-c2cncc(Nc3ccc(Br)c(Cl)c3)n2)cc1 [Div17E5]
[1]; 10 µM
  real-time homo-FRET anisotropy: induced oscillations in real-time anisotropy
[1]; 0 min after compound addition
  average anisotropy change, wt: 106
[1]; 0.5 min after compound addition
  average anisotropy change, wt: 88
[1]; 1 min after compound addition
  average anisotropy change, wt: 110
[1]; 1.5 min after compound addition
  average anisotropy change, wt: 101
[1]; 2 min after compound addition
  average anisotropy change, wt: 115
[1]; 2.5 min after compound addition
  average anisotropy change, wt: 82
[1]; 3 min after compound addition
  average anisotropy change, wt: 112
[1]; 3.5 min after compound addition
  average anisotropy change, wt: 105
[1]; 4 min after compound addition
  average anisotropy change, wt: 80
[1]; 4.5 min after compound addition
  average anisotropy change, wt: 111
[1]; 5 min after compound addition
  average anisotropy change, wt: 83
[1]; 5.5 min after compound addition
  average anisotropy change, wt: 99
[1]; 6 min after compound addition
  average anisotropy change, wt: 121
[1]; 6.5 min after compound addition
  average anisotropy change, wt: 122
[1]; 7 min after compound addition
  average anisotropy change, wt: 100
[1]; 7.5 min after compound addition
  average anisotropy change, wt: 100
[1]; 8 min after compound addition
  average anisotropy change, wt: 74
[1]; 8.5 min after compound addition
  average anisotropy change, wt: 96
[1]; 9 min after compound addition
  average anisotropy change, wt: 96
[1]; 9.5 min after compound addition
  average anisotropy change, wt: 103
[1]; 10 min after compound addition
  average anisotropy change, wt: 99
[1]; 10.5 min after compound addition
  average anisotropy change, wt: 110
[1]; 11 min after compound addition
  average anisotropy change, wt: 95
[1]; 11.5 min after compound addition
  average anisotropy change, wt: 89
[1]; 12 min after compound addition
  average anisotropy change, wt: 110
[1]; 12.5 min after compound addition
  average anisotropy change, wt: 95
[1]; 13 min after compound addition
  average anisotropy change, wt: 108
[1]; 13.5 min after compound addition
  average anisotropy change, wt: 110
[1]; 14 min after compound addition
  average anisotropy change, wt: 100
[1]; 14.5 min after compound addition
  average anisotropy change, wt: 105
[1]; 15 min after compound addition
  average anisotropy change, wt: 94
[1]; -0.5 min after compound addition
  average anisotropy change, wt: 104
[1]; -1 min after compound addition
  average anisotropy change, wt: 103
[1]; -1.5 min after compound addition
  average anisotropy change, wt: 97
[1]; -2 min after compound addition
  average anisotropy change, wt: 101
[1]; -2.5 min after compound addition
  average anisotropy change, wt: 97
[1]; -3 min after compound addition
  average anisotropy change, wt: 98

## Cc1cccc(-c2cncc(Nc3ccc(Br)c(Cl)c3Cl)n2)c1C [Np75-4A22]
[2]
  number of metastasized 70W cells in the lungs: had no effect on the number of metastasized cells
